In PMC6199744, “Development of Chemical Proteomics for the Folateome and Analysis of the Kinetoplastid Folateome” (ACS Infectious Diseases, 2018):
Read-outs that look alike come from different tables or passages of the source.

Legend:
Format in all cases: binding
[1] = target: T1, HeLa cell extract proteins (Homo sapiens, UniProt P27707)
T1 construct: endogenous in cells; host or cells: HeLa cell extract

[2] = target: T2, HeLa cell extract proteins (Homo sapiens, UniProt P62191)
T2 construct: endogenous in cells; host or cells: HeLa cell extract
T2 sequence (P62191 whole entry): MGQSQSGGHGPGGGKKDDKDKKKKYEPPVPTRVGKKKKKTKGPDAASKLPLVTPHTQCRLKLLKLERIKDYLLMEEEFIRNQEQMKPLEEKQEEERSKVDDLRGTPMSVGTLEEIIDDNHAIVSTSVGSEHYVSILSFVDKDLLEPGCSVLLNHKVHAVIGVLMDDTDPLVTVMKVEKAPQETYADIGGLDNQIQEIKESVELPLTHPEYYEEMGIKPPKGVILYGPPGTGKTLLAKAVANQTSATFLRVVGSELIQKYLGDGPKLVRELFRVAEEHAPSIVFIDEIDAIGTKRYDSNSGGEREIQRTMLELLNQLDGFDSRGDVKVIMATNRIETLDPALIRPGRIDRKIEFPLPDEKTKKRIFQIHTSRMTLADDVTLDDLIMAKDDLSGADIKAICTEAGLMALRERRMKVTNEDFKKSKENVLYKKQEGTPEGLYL

[3] = target: T3, HeLa cell extract proteins (Homo sapiens, UniProt P22695)
T3 construct: endogenous in cells; host or cells: HeLa cell extract
T3 sequence (P22695 15-453): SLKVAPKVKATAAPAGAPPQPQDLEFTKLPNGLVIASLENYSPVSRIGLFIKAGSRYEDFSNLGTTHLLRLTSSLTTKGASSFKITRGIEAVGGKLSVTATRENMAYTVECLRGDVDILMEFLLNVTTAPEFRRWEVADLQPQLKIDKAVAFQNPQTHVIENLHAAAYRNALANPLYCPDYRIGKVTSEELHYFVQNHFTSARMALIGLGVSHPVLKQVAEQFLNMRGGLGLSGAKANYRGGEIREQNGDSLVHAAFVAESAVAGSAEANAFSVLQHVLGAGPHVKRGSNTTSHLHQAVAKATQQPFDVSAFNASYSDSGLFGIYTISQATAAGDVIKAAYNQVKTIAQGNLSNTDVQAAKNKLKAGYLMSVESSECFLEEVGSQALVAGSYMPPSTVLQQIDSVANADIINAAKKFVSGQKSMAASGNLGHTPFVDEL

[4] = target: T4, HeLa cell extract proteins (Homo sapiens, UniProt Q9NSI6)
T4 construct: endogenous in cells; host or cells: HeLa cell extract

[5] = target: T5, HeLa cell extract proteins (Homo sapiens, UniProt Q9Y6M0)
T5 construct: endogenous in cells; host or cells: HeLa cell extract
T5 sequence (Q9Y6M0 42-314): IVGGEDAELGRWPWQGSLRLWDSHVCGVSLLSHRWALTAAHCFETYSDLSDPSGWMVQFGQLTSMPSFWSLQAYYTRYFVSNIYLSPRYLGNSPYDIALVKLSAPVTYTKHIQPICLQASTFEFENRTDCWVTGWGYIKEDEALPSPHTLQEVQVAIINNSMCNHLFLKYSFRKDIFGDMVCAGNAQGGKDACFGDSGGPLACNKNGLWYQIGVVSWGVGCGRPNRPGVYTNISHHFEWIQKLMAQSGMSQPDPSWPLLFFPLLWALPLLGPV

[6] = target: T6, HeLa cell extract proteins (Homo sapiens, UniProt P22314)
T6 construct: endogenous in cells; host or cells: HeLa cell extract
T6 sequence (P22314 1-1058): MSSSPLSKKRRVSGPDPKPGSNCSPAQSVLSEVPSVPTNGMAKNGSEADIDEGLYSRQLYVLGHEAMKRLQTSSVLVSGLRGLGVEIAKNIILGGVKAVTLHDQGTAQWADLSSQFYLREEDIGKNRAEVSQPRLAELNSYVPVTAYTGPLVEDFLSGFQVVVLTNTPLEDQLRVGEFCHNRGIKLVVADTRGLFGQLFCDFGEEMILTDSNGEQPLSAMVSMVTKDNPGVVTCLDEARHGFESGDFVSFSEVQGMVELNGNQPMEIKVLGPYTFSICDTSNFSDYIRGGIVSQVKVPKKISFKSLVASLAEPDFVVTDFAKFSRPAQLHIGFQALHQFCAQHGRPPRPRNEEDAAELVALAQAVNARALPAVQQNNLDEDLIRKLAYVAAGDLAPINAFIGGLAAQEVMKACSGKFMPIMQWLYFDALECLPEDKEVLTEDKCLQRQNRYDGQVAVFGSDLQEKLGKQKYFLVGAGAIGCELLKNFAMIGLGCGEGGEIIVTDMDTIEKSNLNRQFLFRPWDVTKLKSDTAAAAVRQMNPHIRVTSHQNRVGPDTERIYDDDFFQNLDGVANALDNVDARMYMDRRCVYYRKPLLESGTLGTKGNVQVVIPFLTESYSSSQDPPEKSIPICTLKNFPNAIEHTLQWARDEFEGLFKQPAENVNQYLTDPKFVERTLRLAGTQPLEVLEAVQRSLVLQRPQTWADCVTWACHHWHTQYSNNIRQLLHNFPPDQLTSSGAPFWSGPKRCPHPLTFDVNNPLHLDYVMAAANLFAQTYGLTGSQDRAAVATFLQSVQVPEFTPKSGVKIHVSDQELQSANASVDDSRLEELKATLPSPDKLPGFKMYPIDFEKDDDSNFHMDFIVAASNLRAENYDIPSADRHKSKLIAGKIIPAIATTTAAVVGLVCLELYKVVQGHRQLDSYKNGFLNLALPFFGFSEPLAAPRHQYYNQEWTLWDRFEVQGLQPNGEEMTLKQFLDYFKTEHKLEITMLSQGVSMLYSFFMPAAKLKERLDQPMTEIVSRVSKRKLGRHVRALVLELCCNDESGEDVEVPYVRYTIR

[7] = target: T7, HeLa cell extract proteins (Homo sapiens, UniProt P12270)
T7 construct: endogenous in cells; host or cells: HeLa cell extract
T7 sequence (P12270 whole entry): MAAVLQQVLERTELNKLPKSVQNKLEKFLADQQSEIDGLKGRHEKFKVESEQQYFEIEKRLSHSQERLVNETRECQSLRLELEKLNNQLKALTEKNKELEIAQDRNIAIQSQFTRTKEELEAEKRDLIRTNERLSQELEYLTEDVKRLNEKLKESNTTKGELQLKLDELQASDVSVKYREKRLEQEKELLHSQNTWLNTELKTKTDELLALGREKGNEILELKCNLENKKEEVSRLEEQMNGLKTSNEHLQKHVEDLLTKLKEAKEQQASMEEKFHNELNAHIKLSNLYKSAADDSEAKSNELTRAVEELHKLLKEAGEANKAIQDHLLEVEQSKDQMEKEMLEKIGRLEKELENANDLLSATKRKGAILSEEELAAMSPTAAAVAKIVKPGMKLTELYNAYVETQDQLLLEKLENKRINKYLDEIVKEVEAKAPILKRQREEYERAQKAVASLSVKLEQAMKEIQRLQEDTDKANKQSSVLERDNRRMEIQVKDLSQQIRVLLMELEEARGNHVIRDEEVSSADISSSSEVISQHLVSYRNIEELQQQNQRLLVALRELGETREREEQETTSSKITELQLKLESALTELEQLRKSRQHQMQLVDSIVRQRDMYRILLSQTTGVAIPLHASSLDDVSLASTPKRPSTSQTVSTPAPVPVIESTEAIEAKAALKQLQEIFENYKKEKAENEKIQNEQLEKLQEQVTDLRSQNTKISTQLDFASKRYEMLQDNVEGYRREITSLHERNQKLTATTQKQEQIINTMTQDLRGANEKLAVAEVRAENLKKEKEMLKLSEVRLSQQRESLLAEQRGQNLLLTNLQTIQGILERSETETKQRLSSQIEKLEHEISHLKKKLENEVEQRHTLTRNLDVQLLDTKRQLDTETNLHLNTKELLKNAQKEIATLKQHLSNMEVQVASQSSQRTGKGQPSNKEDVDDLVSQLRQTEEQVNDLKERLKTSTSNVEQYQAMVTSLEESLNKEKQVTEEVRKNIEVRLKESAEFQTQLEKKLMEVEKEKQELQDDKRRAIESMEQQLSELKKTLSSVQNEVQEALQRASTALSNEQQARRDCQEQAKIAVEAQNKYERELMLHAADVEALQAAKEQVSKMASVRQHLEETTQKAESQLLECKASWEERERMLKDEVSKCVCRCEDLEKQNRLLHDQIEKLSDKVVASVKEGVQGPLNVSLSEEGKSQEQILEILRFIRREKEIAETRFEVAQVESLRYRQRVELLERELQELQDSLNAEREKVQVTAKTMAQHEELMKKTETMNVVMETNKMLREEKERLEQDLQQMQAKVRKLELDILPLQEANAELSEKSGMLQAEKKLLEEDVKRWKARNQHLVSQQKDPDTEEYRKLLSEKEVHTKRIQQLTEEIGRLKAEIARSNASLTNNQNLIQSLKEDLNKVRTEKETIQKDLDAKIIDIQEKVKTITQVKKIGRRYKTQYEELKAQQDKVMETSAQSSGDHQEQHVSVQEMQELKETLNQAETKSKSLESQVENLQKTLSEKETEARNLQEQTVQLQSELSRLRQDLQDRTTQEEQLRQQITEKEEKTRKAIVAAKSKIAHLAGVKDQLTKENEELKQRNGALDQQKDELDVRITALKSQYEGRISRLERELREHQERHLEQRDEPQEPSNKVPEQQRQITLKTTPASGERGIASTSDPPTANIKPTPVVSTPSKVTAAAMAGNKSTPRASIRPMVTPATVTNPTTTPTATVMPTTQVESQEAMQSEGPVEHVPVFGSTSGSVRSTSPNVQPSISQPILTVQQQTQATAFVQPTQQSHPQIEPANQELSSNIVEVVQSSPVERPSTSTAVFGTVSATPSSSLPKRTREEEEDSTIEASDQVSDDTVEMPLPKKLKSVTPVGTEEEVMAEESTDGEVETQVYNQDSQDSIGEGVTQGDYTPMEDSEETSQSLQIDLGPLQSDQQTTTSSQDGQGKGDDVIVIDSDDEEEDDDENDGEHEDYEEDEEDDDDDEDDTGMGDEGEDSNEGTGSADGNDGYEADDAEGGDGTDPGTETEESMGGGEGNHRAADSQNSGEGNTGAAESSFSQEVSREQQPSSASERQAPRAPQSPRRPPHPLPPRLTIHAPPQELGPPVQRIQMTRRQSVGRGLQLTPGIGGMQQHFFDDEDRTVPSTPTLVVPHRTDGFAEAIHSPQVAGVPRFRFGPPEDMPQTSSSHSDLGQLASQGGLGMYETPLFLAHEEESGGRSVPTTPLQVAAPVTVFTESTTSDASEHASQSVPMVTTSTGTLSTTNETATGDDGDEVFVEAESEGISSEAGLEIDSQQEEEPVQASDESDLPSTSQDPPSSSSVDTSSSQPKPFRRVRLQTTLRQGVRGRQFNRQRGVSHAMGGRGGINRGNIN

[8] = target: T8, HeLa cell extract proteins (Homo sapiens, UniProt P22102)
T8 construct: endogenous in cells; host or cells: HeLa cell extract
T8 sequence (P22102 1-1010): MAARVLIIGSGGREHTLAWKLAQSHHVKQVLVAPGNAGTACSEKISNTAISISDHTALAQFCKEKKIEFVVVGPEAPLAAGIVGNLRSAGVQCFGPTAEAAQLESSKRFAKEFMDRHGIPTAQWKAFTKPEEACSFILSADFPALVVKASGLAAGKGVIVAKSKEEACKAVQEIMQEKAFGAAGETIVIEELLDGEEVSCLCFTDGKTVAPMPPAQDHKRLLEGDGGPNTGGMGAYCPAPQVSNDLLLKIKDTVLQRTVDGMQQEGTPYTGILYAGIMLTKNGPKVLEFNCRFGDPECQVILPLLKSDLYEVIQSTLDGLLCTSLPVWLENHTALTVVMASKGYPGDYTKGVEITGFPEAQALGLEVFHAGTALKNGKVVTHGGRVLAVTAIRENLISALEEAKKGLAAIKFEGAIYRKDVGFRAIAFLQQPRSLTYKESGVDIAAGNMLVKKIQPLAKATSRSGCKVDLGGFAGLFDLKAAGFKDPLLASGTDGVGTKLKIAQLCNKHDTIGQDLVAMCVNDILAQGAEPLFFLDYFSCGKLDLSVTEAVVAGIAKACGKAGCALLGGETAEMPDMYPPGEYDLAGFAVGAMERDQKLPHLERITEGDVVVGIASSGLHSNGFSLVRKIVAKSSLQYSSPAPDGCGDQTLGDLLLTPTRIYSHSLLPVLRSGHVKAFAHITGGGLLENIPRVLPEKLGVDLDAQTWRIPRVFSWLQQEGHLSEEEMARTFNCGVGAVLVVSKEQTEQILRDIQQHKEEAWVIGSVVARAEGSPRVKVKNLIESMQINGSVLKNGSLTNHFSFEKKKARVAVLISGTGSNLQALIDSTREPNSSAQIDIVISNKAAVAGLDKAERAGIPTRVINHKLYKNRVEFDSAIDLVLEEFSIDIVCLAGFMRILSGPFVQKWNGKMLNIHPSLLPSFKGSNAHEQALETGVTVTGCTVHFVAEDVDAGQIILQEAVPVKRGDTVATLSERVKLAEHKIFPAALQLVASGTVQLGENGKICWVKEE

T1 sequence (P27707 whole entry): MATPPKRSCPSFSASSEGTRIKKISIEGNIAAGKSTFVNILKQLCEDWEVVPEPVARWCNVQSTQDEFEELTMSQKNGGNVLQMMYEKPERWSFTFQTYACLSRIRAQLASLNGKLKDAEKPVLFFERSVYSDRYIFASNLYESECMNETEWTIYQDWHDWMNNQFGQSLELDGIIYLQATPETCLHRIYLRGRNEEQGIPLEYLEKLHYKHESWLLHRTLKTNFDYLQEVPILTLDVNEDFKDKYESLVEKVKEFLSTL

Compound	fold changes relative to vehicle control ([1]; protein DCK, HeLa)	fold changes relative to vehicle control ([2]; protein PSMC1, HeLa)	fold changes relative to vehicle control ([3]; HeLa, protein UQCRC2)	fold changes relative to vehicle control ([4]; captured protein BRWD1, HeLa)	fold changes relative to vehicle control ([5]; HeLa, protein PRSS21)	fold changes relative to vehicle control ([6]; protein UBA1, HeLa)	fold changes relative to vehicle control ([7]; protein TPR, HeLa)	fold changes relative to vehicle control ([8]; captured protein GART, HeLa)	fold changes relative to vehicle control ([2]; HeLa, protein PSMC1)	fold changes relative to vehicle control ([4]; HeLa, protein BRWD1)	fold changes relative to vehicle control ([6]; HeLa, protein UBA1)	fold changes relative to vehicle control ([7]; HeLa, captured protein TPR)	fold changes relative to vehicle control ([8]; protein GART, HeLa)	other results
Nc1nc2cccc(-c3ccccc3)c2n1Cc1ccc(Cl)c(Cl)c1 [compound 3]	1.01	1	1.01	0.9	1.04	0.75	1.2	1.1	–	–	–	–	–	–
CCCCCCOc1ccc(Cc2cnc(N)nc2N)cc1 [compound 1]	0.98	0.98	0.97	1.01	1.11	0.77	1.19	0.94	–	–	–	–	–	–
NCCCNc1ccc(C(=O)NC(CCC(=O)O)C(=O)O)cc1 (centres unmarked) [compound 7]	–	–	1.03	–	0.97	–	–	–	0.85	0.92	0.92	1.06	1.14	fold changes relative to vehicle control ([1]; HeLa, protein DCK (DEO[…])): 1.04
CCCCCCOc1cccc(Cc2cnc(N)nc2N)c1 [compound 2]	0.9	1.42	0.99	1.03	1.18	1.62	1.44	1.03	–	–	–	–	–	–
NCCOCCOCC(=O)Nc1nc2ncc(CNc3ccc(C(=O)NC(CCC(=O)O)C(=O)O)cc3)nc2c(=O)[nH]1 (centres unmarked) [compound 6]	–	–	0.95	–	0.96	–	–	–	0.95	1.05	1.15	1.51	0.72	fold changes relative to vehicle control ([1]; HeLa, protein DCK (DEOXYCYTIDINE KINASE)): 0.93
Nc1nc2[nH]cc(CCc3ccc(C(=O)N[C@@H](CCC(=O)O)C(=O)O)cc3)c2c(=O)[nH]1 [PTX, pemetrexed]	–	–	–	–	–	–	–	–	–	–	–	–	–	fold changes relative to vehicle control [1]: 1; fold changes relative to vehicle control [2]: 0.92; fold changes relative to vehicle control [3]: 0.93; fold changes relative to vehicle control [4]: 1.07; fold changes relative to vehicle control [5]: 0.89; fold changes relative to vehicle control [6]: 0.96; fold changes relative to vehicle control [7]: 1.21; fold changes relative to vehicle control [8]: 0.43
Nc1nc2c(c(=O)[nH]1)N(C=O)C(CNc1ccc(C(=O)N[C@@H](CCC(=O)O)C(=O)O)cc1)CN2 (some centres unmarked) [LEU, leucovorin]	–	–	0.9	–	1	–	–	–	1	0.93	1.05	1.35	0.66	fold changes relative to vehicle control ([1]; HeLa, protein DCK (DEO[…])): 1.12
